US20100304972A1, “HERBICIDE COMPOSITION” (priority 2007, published 2010)

Key:
Type in all cases: in vivo
Sinapis arvensis = experiment: Test Example 2: spray on plants from above ten days after sowing, herbicidal activity; details: sprayed on plants ten days after sowing, 21 days after treatment, scale 0-10
Description: (§1) The phytotoxicity to a crop is evaluated by indicating “harmless” in case that no or little phytotoxicity is recognized, “light” in case that light phytotoxicity is recognized, “medium” in case that medium phytotoxicity is recognized, or “severe” in case that severe phytotoxicity is recognized.
(§2) Field soil was filled in a plastic pot of 32 cm wide, 22 cm long and 8 cm high, and seeds of wheat (species: Norin No. 61), Sinapis arvensis, and Stellaria media were sowed thereon.
(§3) The plants were raised in a greenhouse and herbicidal activity and phytotoxicity were determined 21 days after the chemical treatment.

Stellaria media = experiment: as above; details: sprayed on plants ten days after sowing, 21 days after treatment, scale 0-10
Chenopodim album = experiment: as above; details: sprayed on plants ten days after sowing, 21 days after treatment, scale 0-10
[1] = test system: wheat (species: Norin No. 61); experiment: Test Example 2: spray on plants from above ten days after sowing, phytotoxicity to crop; details: 800 g/ha, sprayed on plants ten days after sowing, 21 days after treatment
Description: as §1, §2, §3

Cyperus esculentus = experiment: Test Example 4: soil spray on day of planting tubers, herbicidal activity; details: 14 days after treatment, scale 0-10
Excerpt: Field soil was filled in a plastic pot of 32 cm wide, 22 cm long and 8 cm high, and tubers of Cyperus esculentus were planted.
On the day of planting, each of an imazosulfuron suspension formulation (a 40% imazosulfuron-containing suspension formulation, trade name: Sibatite 40 manufactured by Sumitomo Chemical Co., Ltd.), a pendimethalin emulsifiable concentrate (a 30% pendimethalin-containing emulsifiable concentrate, trade name: Go-go-san 30 manufactured by BASF) and a mixed formulation prepared by mixing the imazosulfuron suspension formulation and the pendimethalin emulsifiable concentrate was diluted with water and uniformly sprayed on the soil with a small sprayer so that their amounts became those as shown in Table 4.
The plants were raised in a greenhouse and herbicidal activity was determined 14 days after the chemical treatment.

Row | SMILES | Herbicidal activity Sa (Sinapis arvensis; 800 g/ha) | Herbicidal activity Sm (Stellaria media; 800 g/ha) | Herbicidal activity Ca (Chenopodim album; 800 g/ha) | Phytotoxicity Wheat [1] | Herbicidal activity (Cyperus esculentus; 50 g/ha) | Herbicidal activity (Cyperus esculentus; 200 g/ha) | Herbicidal activity Sa (Sinapis arvensis; 100 g/ha) | Herbicidal activity Sm (Stellaria media; 100 g/ha) | Herbicidal activity Ca (Chenopodim album; 100 g/ha) | Herbicidal activity (Cyperus esculentus; 25 g/ha)
1 | CCC(CC)Nc1c([N+](=O)[O-])cc(C)c(C)c1[N+](=O)[O-] [Pendimethalin, N-(1-ethylpropyl)-3,4-dimethyl-2,6-dinitrobenzenamine] | 2 | 9 | 5 | harmless | 0 | 0 | – | – | – | –
2 | COc1cc(OC)nc(NC(=O)NS(=O)(=O)c2c(Cl)nc3ccccn23)n1 [Imazosulfuron, 1-(2-chloroimidazo[1,2-a]pyridin-3-ylsulfonyl)-3-(4,6-dimethoxypyrimidin-2-yl)urea] | – | – | – | – | – | – | 10 | 10 | 3 | 4
